Results taken from ChEMBL document CHEMBL5226385, “The Antiangiogenic and Antitumor Effects of Scoparasin B in Non-Small-Cell Lung Cancer” (J Nat Prod, 2023).
pIC50: −log10 of the molar value. Activity calls are given as the source filed them. The calls are words filed in the database; no cut-off is given here.

Legend:
HUVEC [1] = assay: Cytotoxicity against human HUVEC cells assessed as reduction in cell proliferation upto 25 nM measured after 48 hrs by CCK8 assay; type: toxicity, cell-based; details: 0.025 µM
HUVEC [2] = assay: Antiangiogenic activity against human HUVEC cells assessed as inhibition of capillary tube-like structure formation at 15 nM incubated for 6 hrs by Matrigel based analysis; type: functional; set-up: scale not given: the % may be the effect or the level left
HMEC-1 = assay: Antiangiogenic activity against human HMEC-1 cells assessed as inhibition of capillary tube-like structure formation at 15 nM incubated for 6 hrs by Matrigel based analysis; type: functional; set-up: scale not given: the % may be the effect or the level left
Rattus norvegicus = species: Rattus norvegicus; assay: Ex vivo antiangiogenic activity against Sprague-Dawley rat aorta rings assessed as reduction in microvessel sprouting from aortic rings by measuring reduction in segment formation measured after 6 days by microscopic analysis; type: functional; details: dose 5-20 nM, time 6.0 day
Gallus gallus = species: Gallus gallus; assay: Ex vivo antiangiogenesis activity in chicken embryo chorioallantonic membrane assessed as reduction in microvessel density at 5 to 20 nM measured after 48 hrs by stereomicroscopic analysis; type: functional, organism-based; details: Chorioallantoic membrane, dose 5-20 nM
HUVEC [3] = assay: Downregulation of VEGFR2 protein expression in human HUVEC cells at 5 to 15 nM incubated for 36 hrs by western blot analysis; type: functional, cell-based; details: dose 5-15 nM
HUVEC [4] = assay: Inhibition of VEGF-A secretion in human HUVEC cells incubated for 36 hrs by ELISA; type: functional, cell-based; details: dose 5-15 nM
[5] = molecular target: Vascular endothelial growth factor receptor 2 (Homo sapiens) (UniProt P35968); assay: Inhibition of VEGF-A-mediated VEGFR2 signaling pathway in human HUVEC cells assessed as reduction in Akt phosphorylation at Thr308 residue at 5 to 15 nM incubated for 36 hrs by western blot analysis; type: cell-based; details: dose 5-15 nM
Vascular endothelial growth factor receptor 2 (Homo sapiens), sequence (P35968 whole entry): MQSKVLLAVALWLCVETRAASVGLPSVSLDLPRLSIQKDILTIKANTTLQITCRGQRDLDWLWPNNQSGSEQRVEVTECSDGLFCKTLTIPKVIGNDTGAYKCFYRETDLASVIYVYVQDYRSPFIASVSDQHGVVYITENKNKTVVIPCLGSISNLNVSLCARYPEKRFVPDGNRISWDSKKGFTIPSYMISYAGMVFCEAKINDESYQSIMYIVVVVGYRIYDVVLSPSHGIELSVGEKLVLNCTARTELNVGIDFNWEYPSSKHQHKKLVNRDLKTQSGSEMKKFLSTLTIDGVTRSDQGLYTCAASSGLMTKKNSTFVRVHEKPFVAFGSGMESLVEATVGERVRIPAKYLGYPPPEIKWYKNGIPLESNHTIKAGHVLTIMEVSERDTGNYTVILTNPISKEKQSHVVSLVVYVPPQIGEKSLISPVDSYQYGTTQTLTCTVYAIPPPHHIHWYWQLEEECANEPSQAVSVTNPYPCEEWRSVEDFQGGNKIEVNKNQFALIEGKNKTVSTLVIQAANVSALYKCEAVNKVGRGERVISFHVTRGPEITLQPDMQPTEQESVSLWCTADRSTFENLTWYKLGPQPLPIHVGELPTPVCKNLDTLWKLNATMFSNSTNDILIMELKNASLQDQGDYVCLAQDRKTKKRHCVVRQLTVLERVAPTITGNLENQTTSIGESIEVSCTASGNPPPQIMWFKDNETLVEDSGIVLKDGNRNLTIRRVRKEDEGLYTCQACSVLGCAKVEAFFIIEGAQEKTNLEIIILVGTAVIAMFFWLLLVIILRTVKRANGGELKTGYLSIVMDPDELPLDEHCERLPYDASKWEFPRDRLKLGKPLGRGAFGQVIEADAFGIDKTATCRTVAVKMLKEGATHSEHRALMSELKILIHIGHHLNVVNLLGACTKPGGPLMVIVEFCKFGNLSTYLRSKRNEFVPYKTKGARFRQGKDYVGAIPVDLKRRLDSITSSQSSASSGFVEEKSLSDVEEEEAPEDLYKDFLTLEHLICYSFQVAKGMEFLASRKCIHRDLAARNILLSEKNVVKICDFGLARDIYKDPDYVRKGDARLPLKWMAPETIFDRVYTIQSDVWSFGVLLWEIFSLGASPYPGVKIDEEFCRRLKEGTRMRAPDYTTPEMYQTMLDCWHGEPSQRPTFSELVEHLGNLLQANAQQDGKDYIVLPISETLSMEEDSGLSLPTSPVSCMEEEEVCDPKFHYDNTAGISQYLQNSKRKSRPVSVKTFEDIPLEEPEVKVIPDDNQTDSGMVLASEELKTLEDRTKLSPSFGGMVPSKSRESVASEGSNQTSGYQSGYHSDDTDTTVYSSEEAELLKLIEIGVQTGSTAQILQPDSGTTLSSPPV

[6] = molecular target: Vascular endothelial growth factor receptor 2 (Homo sapiens) (UniProt P35968); assay: Inhibition of VEGF-A-mediated VEGFR2 signaling pathway in human HMEC-1 cells assessed as reduction in Akt phosphorylation at Thr308 residue at 5 to 15 nM incubated for 36 hrs by western blot analysis; type: cell-based; details: dose 5-15 nM
[7] = molecular target: Vascular endothelial growth factor receptor 2 (Homo sapiens) (UniProt P35968); assay: Inhibition of VEGF-A-mediated VEGFR2 signaling pathway in human HMEC-1 cells assessed as reduction in FAK phosphorylation at Tyr397 residue at 5 to 15 nM incubated for 36 hrs by western blot analysis; type: cell-based; details: dose 5-15 nM
HBVP [8] = assay: Inhibition of cell adhesion in human HBVP cells assessed as reduction in cell adhesion number at 5 to 15 nM pretreated with compound for 24 hrs followed by culturing for 1 hr by crystal violet staining based inverted microscopic analysis; type: functional; details: dose 5-15 nM, time 25.0 hrs
HUVEC [9] = assay: Inhibition of pericyte-mediated angiogenesis in PKH26-labeled human HUVEC cells assessed as reduction in PKH67-labeled HBVP recruitment to newly formed capillary by endothelial cells by measuring reduction in overall vessel coverage for branch points and total tube lengths at 5 to 15 nM pericytes pretreated with compound for 48 hrs followed by incubation with endothelial cells and measured within 3 hrs by Matrigel-based fluorescence analysis; type: functional, cell-based; details: dose 5-15 nM, time 51.0 hrs
[10] = molecular target: Platelet-derived growth factor receptor beta (Homo sapiens) (UniProt P09619); assay: Inhibition of PDGF-BB-mediated PDGFR-beta signaling axis in human HBVP cells assessed as inhibition of PDGFR-beta phosphorylation at Tyr857 residue at 5 to 15 nM incubated for 24 hrs by western blot analysis; type: cell-based; details: dose 5-15 nM
Platelet-derived growth factor receptor beta (Homo sapiens), sequence (P09619 whole entry): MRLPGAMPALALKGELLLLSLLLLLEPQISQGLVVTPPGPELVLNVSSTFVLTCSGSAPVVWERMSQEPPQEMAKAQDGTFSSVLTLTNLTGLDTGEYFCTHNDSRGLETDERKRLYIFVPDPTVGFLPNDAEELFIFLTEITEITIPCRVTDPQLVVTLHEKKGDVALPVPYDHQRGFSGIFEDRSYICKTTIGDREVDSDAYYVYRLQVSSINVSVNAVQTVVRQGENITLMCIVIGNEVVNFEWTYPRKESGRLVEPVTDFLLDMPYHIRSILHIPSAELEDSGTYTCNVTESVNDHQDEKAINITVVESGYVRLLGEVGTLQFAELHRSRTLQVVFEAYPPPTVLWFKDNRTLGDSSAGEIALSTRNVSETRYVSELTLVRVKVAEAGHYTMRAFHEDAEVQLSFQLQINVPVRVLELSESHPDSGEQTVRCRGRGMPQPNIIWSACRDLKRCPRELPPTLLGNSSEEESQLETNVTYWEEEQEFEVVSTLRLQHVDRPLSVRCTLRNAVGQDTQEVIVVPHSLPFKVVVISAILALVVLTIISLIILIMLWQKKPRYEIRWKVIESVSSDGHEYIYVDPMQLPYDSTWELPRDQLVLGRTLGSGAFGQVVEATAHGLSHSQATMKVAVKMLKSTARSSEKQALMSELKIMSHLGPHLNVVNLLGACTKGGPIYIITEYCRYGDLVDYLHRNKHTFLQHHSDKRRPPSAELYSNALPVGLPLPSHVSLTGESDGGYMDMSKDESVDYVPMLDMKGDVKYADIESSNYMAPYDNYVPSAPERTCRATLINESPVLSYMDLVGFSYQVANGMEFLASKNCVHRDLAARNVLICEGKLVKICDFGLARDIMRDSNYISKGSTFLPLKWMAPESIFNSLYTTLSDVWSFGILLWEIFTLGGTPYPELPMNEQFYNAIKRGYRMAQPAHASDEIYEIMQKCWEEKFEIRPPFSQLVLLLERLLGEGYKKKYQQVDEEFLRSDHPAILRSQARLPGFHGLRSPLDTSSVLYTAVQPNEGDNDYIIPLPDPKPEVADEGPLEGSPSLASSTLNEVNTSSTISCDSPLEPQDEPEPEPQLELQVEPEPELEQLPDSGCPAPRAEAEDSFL

HBVP [11] = assay: Inhibition of PDGFR-beta protein expression in human HBVP cells at 5 to 15 nM incubated for 24 hrs by western blot analysis; type: functional, cell-based; details: dose 5-15 nM
HBVP [12] = assay: Inhibition of PDGF-BB mRNA expression in human HBVP cells at 5 to 15 nM incubated for 24 hrs by qPCR analysis; type: functional, cell-based; details: dose 5-15 nM
NCI-H1299 [13] = assay: Cytotoxicity against human NCI-H1299 cells assessed as reduction in cell viability at 25 nM incubated for 48 hrs by CCK8 assay; type: toxicity, cell-based; details: nci-h1299, 48 h, 0.025 µM
NCI-H1299 [14] = assay: Downregulation of Vimentin protein expression in human NCI-H1299 cells at 5 to 15 nM incubated for 24 hrs by western blot analysis; type: functional, cell-based; details: dose 5-15 nM
NCI-H1299 [15] = assay: […] of E-Cadherin protein expression in human NCI-H1299 cells at 5 to 15 nM incubated for 24 hrs by western blot analysis; type: functional, cell-based; details: dose 5-15 nM
NCI-H1299 [16] = assay: Downregulation of Vimentin mRNA expression in human NCI-H1299 cells at 5 to 15 nM incubated for 24 hrs by qPCR analysis; type: functional, cell-based; details: dose 5-15 nM
NCI-H1299 [17] = assay: Downregulation of Snail mRNA expression in human NCI-H1299 cells at 5 to 15 nM incubated for 24 hrs by qPCR analysis; type: functional, cell-based; details: dose 5-15 nM
NCI-H1299 [18] = assay: Antitumor activity against human NCI-H1299 cells xenografted in BALB/c nude mouse assessed as tumor volume at 1.5 mg/kg, ip administered every other day for 20 days by vernier caliper analysis (reference value: 1206.46 +/-332.44 mm3); type: functional; details: time 20 day
[19] = Toxicity against BALB/c nude mouse xenografted with human NCI-H1299 cells assessed as change in body weight at 0.75 to 1.5 mg/kg, ip administered every other day for 20 days; type: organism-based; details: in vivo, 480 h, dose 0.75-1.5 mg/kg, time 20 day
[20] = Toxicity against BALB/c nude mouse xenografted with human NCI-H1299 cells assessed as morphological changes in heart at 0.75 to 1.5 mg/kg, ip administered every other day for 20 days by Hematoxylin and eosin staining based inverted microscopic analysis; type: organism-based; details: in vivo, 480 h, dose 0.75-1.5 mg/kg, time 20 day
[21] = Toxicity against BALB/c nude mouse xenografted with human NCI-H1299 cells assessed as morphological changes in liver at 0.75 to 1.5 mg/kg, ip administered every other day for 20 days by Hematoxylin and eosin staining based inverted microscopic analysis; type: organism-based; details: in vivo, 480 h, dose 0.75-1.5 mg/kg, time 20 day
[22] = Toxicity against BALB/c nude mouse xenografted with human NCI-H1299 cells assessed as morphological changes in spleen at 0.75 to 1.5 mg/kg, ip administered every other day for 20 days by Hematoxylin and eosin staining based inverted microscopic analysis; type: organism-based; details: in vivo, 480 h, dose 0.75-1.5 mg/kg, time 20 day
[23] = Toxicity against BALB/c nude mouse xenografted with human NCI-H1299 cells assessed as morphological changes in lungs at 0.75 to 1.5 mg/kg, ip administered every other day for 20 days by Hematoxylin and eosin staining based inverted microscopic analysis; type: organism-based; details: in vivo, 480 h, dose 0.75-1.5 mg/kg, time 20 day
[24] = Toxicity against BALB/c nude mouse xenografted with human NCI-H1299 cells assessed as morphological changes in kidneys at 0.75 to 1.5 mg/kg, ip administered every other day for 20 days by Hematoxylin and eosin staining based inverted microscopic analysis; type: organism-based; details: in vivo, 480 h, dose 0.75-1.5 mg/kg, time 20 day
NCI-H1299 [25] = assay: Antitumor activity against human NCI-H1299 cells xenografted in BALB/c nude mouse assessed as increase in tumor necrotic areas at 0.75 to 1.5 mg/kg, ip administered every other day for 20 days by Hematoxylin and eosin staining based inverted microscopic analysis; type: functional, organism-based; details: dose 0.75-1.5 mg/kg, time 20.0 day
NCI-H1299 [26] = assay: Antitumor activity against human NCI-H1299 cells xenografted in BALB/c nude mouse assessed as reduction in Ki67 expression in tumor at 0.75 to 1.5 mg/kg, ip administered every other day for 20 days by immunohistochemical analysis; type: functional, organism-based; details: dose 0.75-1.5 mg/kg, time 20.0 day
Mus musculus = assay: Downregulation of VEGF-A protein expression in tumor of BALB/c nude mouse xenografted with human NCI-H1299 cells at 0.75 to 1.5 mg/kg, ip administered every other day for 20 days by immunohistochemical analysis; type: functional, organism-based; details: dose 0.75-1.5 mg/kg, time 20.0 day
NCI-H460 = assay: Cytotoxicity against human NCI-H460 cells assessed as reduction in cell viability measured after 72 hrs by MTT assay; type: functional, cell-based; details: NCI-H460, 72 h

COc1ccc(C[C@@H]2NC(=O)[C@@]34OC(=O)O/C=C/[C@@](C)(O)C(=O)[C@@H](C)C/C=C/[C@H]3[C@H](O)[C@](C)(O)[C@@H](C)[C@@H]24)cc1 [SCOPARASIN B]
Activity (HUVEC [1]): Non-Toxic
Activity (HUVEC [2]): 100%
Activity (HMEC-1): 100%
Activity (Rattus norvegicus): Dose-Dependent Effect
Activity (Gallus gallus): Active
inhibition (HUVEC [3]): inactive
inhibition (HUVEC [4]): Dose-Dependent Effect
inhibition [5]: Active
inhibition [6]: Active
inhibition [7]: Active
inhibition (HBVP [8]): Active
inhibition (HUVEC [9]): Active
inhibition [10]: Active
inhibition (HBVP [11]): inactive
inhibition (HBVP [12]): Active
Activity (NCI-H1299 [13]): Non-Toxic
inhibition (NCI-H1299 [14]): Active
inhibition (NCI-H1299 [15]): Active
inhibition (NCI-H1299 [16]): Active
inhibition (NCI-H1299 [17]): Active
Activity (NCI-H1299 [18]): 190.09 mm3
Activity [19]: Non-Toxic
Activity [20]: Non-Toxic
Activity [21]: Non-Toxic
Activity [22]: Non-Toxic
Activity [23]: Non-Toxic
Activity [24]: Non-Toxic
Activity (NCI-H1299 [25]): Active
Activity (NCI-H1299 [26]): Active
inhibition (Mus musculus): Active
pIC50 (NCI-H460): 5.41
